How the values were obtained:
Type in all cases: cell-based, human
[1] = tested on: Tumor disks from seven fresh surgical specimens; test: in vitro angiogenesis assay, mean over all tumors; conditions: Mean +/− SEM of seven tumors; for % Initiation % ↓ / Al (0-16) % ↓: 10^−8 M, decrease vs control
Text: (§1) It is submitted that at least part of the effect observed with the compounds of formula I on the diseases mentioned herein are resulting from the inhibition of angiogenesis. […] It is known that human vein disks incorporated into a 0.3% fibrin-thrombin clot will develop angiogenic vessel growth from the cut edge of the vessel disk.
(§2) METHODS: Tumor disks (2 mm in diameter) from seven fresh surgical specimens are incorporated into fibrin-thrombin clots overlayed with nutrient medium containing 20% fetal bovine serum. The fragments are allowed to become angiogenic and on day 18, nutrient medium or nutrient medium containing a compound of formula I, is added. Tumor disks are visually assessed over time to determine the percent of wells that initiated an angiogenic response (% I). Neovessel growth, density, and length are graded at intervals using a semi-quantitative visual neovessel growth-rating scheme [angiogenic index (AI), 0-16 scale]. Statistical significance of the results is tested using comparison of two proportions for % initiation and t-tests for the angiogenic index (p<0.05 considered significant*).

[2] = tested on: Bronchial carcinoid tumor disks; test: in vitro angiogenesis assay, tumor disks in fibrin-thrombin clot
Text: as §1, §2

[3] = tested on: Midgut carcinoid tumor disks; test: as above
Text: as §1, §2

[4] = tested on: Midgut carcinoid (met) tumor disks; test: as above
Text: as §1, §2

[5] = tested on: Thymic carcinoid tumor disks; test: as above
Text: as §1, §2

[6] = tested on: Renal cell carcinoma tumor disks; test: as above
Text: as §1, §2

[7] = tested on: Breast carcinoma tumor disks; test: as above
Text: as §1, §2

[8] = tested on: Thyroid cancer tumor disks; test: as above; conditions: Thyroid cancer (identified as a parathyroid adenoma)
Text: as §1, §2

[9] = percent of wells that initiated an angiogenic response

C/C(=C\c1csc(C)n1)[C@@H]1C[C@@H]2O[C@]2(C)CCC[C@H](C)[C@H](O)[C@@H](C)C(=O)C(C)(C)[C@@H](O)CC(=O)O1 [epothilone B]
Al (0-16) EpoB 10^−8 M ([1]; angiogenic index, 0-16 scale): 3 ± 1.1 | % Initiation EpoB 10^−8 M [1, 9]: 17.2 ± 7.4% | % Initiation % ↓ [1]: 60±13.8% | Al (0-16) % ↓ [1]: 73±9% | % Initiation % ↓ ([1]; listed as EpoB): 60 ± 14% | Al (0-16) % ↓ ([1]; listed as EpoB): 73 ± 9% | % Initiation % ↓ ([2]; 10^−8 M, decrease vs control): 12% | Al (0-16) % ↓ ([2]; 10^−8 M, decrease vs control): 40% | Al (0-16) EpoB 10^−8 M ([2]; angiogenic index, 0-16 scale): 6.1 | % Initiation EpoB 10^−8 M [2, 9]: 37% | % Initiation % ↓ ([3]; 10^−8 M, decrease vs control): 15% | Al (0-16) % ↓ ([3]; 10^−8 M, decrease vs control): 40% | Al (0-16) EpoB 10^−8 M ([3]; angiogenic index, 0-16 scale): 8.2 | % Initiation EpoB 10^−8 M [3, 9]: 20% | % Initiation % ↓ ([4]; 10^−8 M, decrease vs control): 100% | Al (0-16) % ↓ ([4]; 10^−8 M, decrease vs control): 100% | Al (0-16) EpoB 10^−8 M ([4]; angiogenic index, 0-16 scale): 0 | % Initiation EpoB 10^−8 M [4, 9]: 0% | % Initiation % ↓ ([5]; 10^−8 M, decrease vs control): 40% | Al (0-16) % ↓ ([5]; 10^−8 M, decrease vs control): 73% | Al (0-16) EpoB 10^−8 M ([5]; angiogenic index, 0-16 scale): 2.5 | % Initiation EpoB 10^−8 M [5, 9]: 3.3% | % Initiation % ↓ ([6]; 10^−8 M, decrease vs control): 88% | Al (0-16) % ↓ ([6]; 10^−8 M, decrease vs control): 80% | Al (0-16) EpoB 10^−8 M ([6]; angiogenic index, 0-16 scale): 1 | % Initiation EpoB 10^−8 M [6, 9]: 6.7% | % Initiation % ↓ ([7]; 10^−8 M, decrease vs control): 94% | Al (0-16) % ↓ ([7]; 10^−8 M, decrease vs control): 91% | Al (0-16) EpoB 10^−8 M ([7]; angiogenic index, 0-16 scale): 1 | % Initiation EpoB 10^−8 M [7, 9]: 3.3% | Al (0-16) EpoB 10^−8 M ([8]; angiogenic index, 0-16 scale): 2.1 | % Initiation EpoB 10^−8 M [8, 9]: 50% | % Initiation % ↓ ([8]; 10^−8 M, decrease vs control): 50% | Al (0-16) % ↓ ([8]; 10^−8 M, decrease vs control): 85%

Source: US20060142354A1, “Use of epothilone derivatives for the treatment of hyperparathyroidism” (priority 2002, published 2006)
